PubChem BioAssay AID588568 (The Scripps Research Institute Molecular Screening Center, 2011)
The source made the active and inactive calls. No rule for the calls is given here.

What follows are compounds tested against Melanin-concentrating hormone receptor 1 (Homo sapiens) (UniProt Q99705) (assay: antagonist activity at MCH receptor 1 – cell-based, fluorescence, set 4, counter-screen for GPR7 antagonist project, dose response (AID 588568)). Conditions: MCHR1-expressing cells, fluorescence antagonist assay; run 1.

| IC50 | SMILES |
| --- | --- |
| 2.68 µM | COc1ccc(Oc2c(Cl)cnn(C3=Nc4ccccc4Oc4ccccc43)c2=O)cc1 |
| 3.57 µM | COc1ccc(Oc2c(Cl)c(C3=CCCCC3)nn(Cc3ccccc3C)c2=O)cc1 |
| 6 µM | CC(=O)OCc1ccc(Oc2c(Cl)cnn(Cc3cccc4ccccc34)c2=O)cc1 |
| 2.64 µM | COc1ccc(Oc2c(Cl)cnn(CC(=O)c3ccc(C)cc3C)c2=O)cc1 |
| 2.49 µM | COc1ccc(Oc2c(Cl)cnn(Cc3ccc(F)c4ccccc34)c2=O)cc1 |
| 1.69 µM | C=Cc1cnn(Cc2cccc3ccccc23)c(=O)c1Oc1ccc(OC)cc1 |
| inactive | NCc1ccc(Oc2c(Cl)cnn(Cc3cccc4ccccc34)c2=O)cc1 |
| 6.18 µM | COc1ccc(Oc2c(Cl)cnn(Cc3c(OC)ccc4ccccc34)c2=O)cc1 |
| 2.31 µM | CCc1cccc(-n2ncc(Cl)c(Oc3ccc(OC)cc3)c2=O)c1 |
| 7.84 µM | COc1ccc(Oc2c(Cl)cnn(-c3ccc(F)cc3)c2=O)cc1 |
| > 20 µM (inactive) | COc1ccc(Oc2c(Cl)cnn(-c3nc4ccccc4c4ccccc34)c2=O)cc1 |
| 8.69 µM | COc1ccc(Oc2c(Cl)cnn(C(C)c3cccc4ccccc34)c2=O)cc1 (stereo unspecified) |
| 5.02 µM | CCOc1ccc(Oc2c(N)cnn(Cc3cccc4ccccc34)c2=O)cc1 |
| inactive | COc1ccc(Oc2c(Cl)cnn(C(c3ccccc3)c3ccccc3C)c2=O)cc1 (stereo unspecified) |
| 1.79 µM | COc1ccc(Oc2c(Cl)c(-c3ccccc3C)nn(Cc3ccccc3C)c2=O)cc1 |
| 6.5 µM | COc1ccc(Oc2c(Cl)cnn(-c3ccc(OC(C)C)cc3)c2=O)cc1 |
| inactive | CC(C)Oc1ccc(Oc2c(Cl)cnn(Cc3cccc4ccccc34)c2=O)cc1 |
| 4.7 µM | COc1ccc(Oc2c(Cl)cnn(Cc3cccc(C(F)(F)F)c3)c2=O)cc1 |
| > 20 µM (inactive) | COc1ccc(Oc2c(-c3ccsc3)c(-c3ccsc3)nn(Cc3ccccc3C)c2=O)cc1 |
| > 20 µM (inactive) | COc1ccc(Oc2c(Cl)cnn(Cc3ccc(Br)c4ccccc34)c2=O)cc1 |
| inactive | CCCCOC(=O)C(c1ccccc1Cl)n1ncc(Cl)c(Oc2ccc(OC)cc2)c1=O (stereo unspecified) |
| 1.11 µM | COc1ccc(Oc2c(Cl)cnn(C3=Nc4cc(Cl)ccc4Oc4ccccc43)c2=O)cc1 |
| inactive | COc1ccc(Oc2c(Cl)c(-c3ccc(C(F)(F)F)cc3)nn(Cc3ccccc3C)c2=O)cc1 |
| 8.7 µM | COc1ccc(Oc2c(Cl)c(-c3ccccc3)nn(Cc3ccccc3C)c2=O)cc1 |
| inactive | COc1ccc(Oc2c(Cl)cnn(-c3ccccc3)c2=O)cc1 |
| 9.47 µM | COc1ccc(Oc2c(Cl)cnn(-c3ccc(C)c(C)c3)c2=O)cc1 |
| 2.32 µM | Cc1cc(C)cc(Cn2[nH]cc(Oc3ccc(CO)cc3)c(=O)c2=O)c1 |
| 9.6 µM | COc1ccc(Oc2c(Cl)cnn(-c3ccc(C(F)(F)F)cc3)c2=O)cc1 |
| 3.02 µM | Cc1cc(C)cc(Cn2ncc(Cl)c(Oc3ccc(CO)cc3)c2=O)c1 |

Same assay, conditions: MCHR1-expressing cells, fluorescence antagonist assay; run 2

| IC50 [µM] | SMILES |
| --- | --- |
| 3.99 | COc1ccc(Oc2c(Cl)cnn(-c3ccc(C)c(C)c3)c2=O)cc1 |
| 9.81 | COc1ccc(Oc2c(Cl)cnn(-c3ccc(C(F)(F)F)cc3)c2=O)cc1 |
